Source: PubChem BioAssay (NCI)
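Method: 48-hour compound exposure of cells in 96-well plates, five concentrations, linear interpolation of endpoints. Here, GI50 denotes the concentration required for 50% inhibition of growth. TGI marks complete inhibition of growth.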

Assays:
Assay in all cases: DTP human tumour cell line panel, 48 h
[1] = system: IGROV1 ovarian
[2] = system: A498 renal
[3] = system: OVCAR-5 ovarian
[4] = system: HCC-2998 colon
[5] = system: DU-145 prostate
[6] = system: PC-3 prostate
[7] = system: OVCAR-3 ovarian
[8] = system: ACHN renal
[9] = system: OVCAR-8 ovarian
[10] = system: EKVX NSCLC
[11] = system: A549 NSCLC
[12] = system: TK-10 renal
[13] = system: SF-295 CNS
[14] = system: SK-MEL-5 melanoma
[15] = system: OVCAR-4 ovarian
[16] = system: SK-MEL-28 melanoma
[17] = system: BT-549 breast
[18] = system: K-562 leukemia
[19] = system: RXF 393 renal
[20] = system: UO-31 renal
[21] = system: SF-268 CNS
[22] = system: UACC-257 melanoma
[23] = system: NCI/ADR-RES ovarian
[24] = system: HOP-92 NSCLC
[25] = system: HCT-116 colon
[26] = system: U251 CNS
[27] = system: LOX IMVI melanoma
[28] = system: SF-539 CNS
[29] = system: T-47D breast
[30] = system: HL-60(TB) leukemia
[31] = system: MDA-MB-435
[32] = system: SW-620 colon
[33] = system: SK-MEL-2 melanoma
[34] = system: HCT-15 colon
[35] = system: CAKI-1 renal
[36] = system: KM12 colon
[37] = system: MCF7 breast
[38] = system: MDA-MB-231 breast
[39] = system: HS 578T breast
[40] = system: SNB-19 CNS
[41] = system: NCI-H460 lung
[42] = system: CCRF-CEM leukemia
[43] = system: MDA-MB-468 breast
[44] = system: HT29 colon
[45] = system: NCI-H522 lung
[46] = system: SNB-75 CNS
[47] = system: NCI-H23 lung
[48] = system: SK-OV-3 ovarian
[49] = system: MALME-3M melanoma
[50] = system: MOLT-4 leukemia
[51] = system: 786-0 renal
[52] = system: NCI-H226 lung
[53] = system: M14 melanoma
[54] = system: SN12C renal
[55] = system: UACC-62 melanoma
[56] = system: RPMI-8226 leukemia
[57] = system: COLO 205 colon

Work on `COc1ccc(NC(=O)CSc2nnc(-c3ccc(-c4nc5ccccc5[nH]4)cc3)o2)cc1` yielded a GI50 [1] of 2.17 µM, a TGI [1] of 5.06 µM and a GI50 [2] of 2.1 µM. The TGI [2] was 5.75 µM, the GI50 [3] was 2.28 µM and the TGI [3] was 5.23 µM. The GI50 [4] was 12.1 µM, the TGI [4] was 34.6 µM and the GI50 [5] was 2.77 µM. The TGI [5] was 7.62 µM, the GI50 [6] was 2.06 µM and the TGI [6] was 3.96 µM. For the same molecule, the GI50 [7] was 2.29 µM, the TGI [7] was 4.56 µM and the GI50 [8] was 2.4 µM. For the same molecule, the TGI [8] was 5.86 µM, the GI50 [9] was 1.85 µM and the TGI [9] was 3.66 µM. For the same molecule, the GI50 [10] was 1.98 µM, the TGI [10] was 4.21 µM and the GI50 [11] was 1.97 µM. For the same molecule, the TGI [11] was 4.22 µM, the GI50 [12] was 3.09 µM and the TGI [12] was 10.8 µM. The GI50 [13] was 1.79 µM, the TGI [13] was 3.34 µM and the GI50 [14] was 1.91 µM. For the same molecule, the TGI [14] was 3.94 µM, the GI50 [15] was 2.5 µM and the TGI [15] was 6.64 µM. It also gave a GI50 [16] of 1.76 µM, a TGI [16] of 3.21 µM and a GI50 [17] of 1.94 µM. For the same molecule, the TGI [17] was 4.09 µM, the GI50 [18] was 3.65 µM and the TGI [18] was greater than 100 µM. It also gave a GI50 [19] of 1.84 µM, a TGI [19] of 3.56 µM and a GI50 [20] of 2.8 µM. For the same molecule, the TGI [20] was 10.4 µM, the GI50 [21] was 2.02 µM and the TGI [21] was 4.2 µM. It also gave a GI50 [22] of 1.92 µM, a TGI [22] of 3.93 µM and a GI50 [23] of 9.32 µM. For the same molecule, the TGI [23] was greater than 100 µM, the GI50 [24] was 1.77 µM and the TGI [24] was 3.79 µM. The GI50 [25] was 2.38 µM, the TGI [25] was 5.9 µM and the GI50 [26] was 1.83 µM. For the same molecule, the TGI [26] was 3.36 µM, the GI50 [27] was 1.81 µM and the TGI [27] was 3.38 µM. For the same molecule, the GI50 [28] was 1.79 µM, the TGI [28] was 3.42 µM and the GI50 [29] was 3.1 µM. For the same molecule, the TGI [29] was 9.51 µM, the GI50 [30] was 5.04 µM and the TGI [30] was greater than 100 µM. For the same molecule, the GI50 [31] was 2.08 µM, the TGI [31] was 4.55 µM and the GI50 [32] was 2.34 µM. The TGI [32] was 6.39 µM, the GI50 [33] was 2.07 µM and the TGI [33] was 4.45 µM. The GI50 [34] was 2.3 µM, the TGI [34] was 5.67 µM and the GI50 [35] was 1.89 µM. The TGI [35] was 3.83 µM, the GI50 [36] was 3.49 µM and the TGI [36] was 13.3 µM. It also gave a GI50 [37] of 2.35 µM, a TGI [37] of 6.4 µM and a GI50 [38] of 1.89 µM. The TGI [38] was 3.45 µM, the GI50 [39] was 2.56 µM and the TGI [39] was 7.29 µM. For the same molecule, the GI50 [40] was 2.04 µM, the TGI [40] was 4.04 µM and the GI50 [41] was 2.01 µM. For the same molecule, the TGI [41] was 4.32 µM, the GI50 [42] was 3.03 µM and the TGI [42] was greater than 100 µM. The GI50 [43] was 2.51 µM, the TGI [43] was 6.44 µM and the GI50 [44] was 1.82 µM. For the same molecule, the TGI [44] was 3.42 µM, the GI50 [45] was 1.72 µM and the TGI [45] was 3.4 µM. It also gave a GI50 [46] of 1.83 µM, a TGI [46] of 3.89 µM and a GI50 [47] of 1.93 µM. The TGI [47] was 3.84 µM, the GI50 [48] was 2.36 µM and the TGI [48] was 4.94 µM. The GI50 [49] was 1.69 µM, the TGI [49] was 3.14 µM and the GI50 [50] was 3.23 µM. The TGI [50] was greater than 100 µM, the GI50 [51] was 1.92 µM and the TGI [51] was 3.63 µM. For the same molecule, the GI50 [52] was 1.92 µM, the TGI [52] was 4.17 µM and the GI50 [53] was 2.3 µM. The TGI [53] was 5.27 µM, the GI50 [54] was 1.84 µM and the TGI [54] was 3.59 µM. It also gave a GI50 [55] of 1.63 µM, a TGI [55] of 3.04 µM and a GI50 [56] of 3.42 µM. It also gave a TGI [56] greater than 100 µM, a GI50 [57] of 4.51 µM and a TGI [57] of 19.3 µM.
